The subject of experiment [1] is E. coli. Description: MIC versus efflux impaired and porin deficient strains. The experiment is classed as cell-based. The note with it: Escherichia coli. On the procedure:
(§1) MIC determinations were performed using the broth microdilution method and in line with CLSI guidelines M07 and M100 (refs. [37],[38]). Bacterial inocula were prepared by diluting a 0.5 McFarland suspension in CAMHB or lysogeny broth (LB) specifically for A. baylyi isolates. […] MIC values of all of the tested antibiotics were read as the lowest compound concentration inhibiting bacterial growth by naked eye or beyond which the OD600 ceased to decrease.

Experiment [2] concerns A. baumannii. Description: MIC, broth microdilution in CAMHB supplemented with human serum, read at 100% growth inhibition. The experiment is classed as cell-based, Acinetobacter baumannii. The note with it: Acinetobacter baumannii, ACC00535; CAMHB + 20% HS; read-out: MIC. On the procedure: as §1

Molecules are shown by their SMILES. Values after ≈ are worked out from the molar mass of the structure shown. Some results are limits rather than exact numbers.

These results are taken from article PMC10794144, “A novel antibiotic class targeting the lipopolysaccharide transporter” (Nature, 2024).

What is called MIC is the lowest concentration that inhibits growth of the organism.

Regarding `CN1C(=O)[C@H](CCCCN)NC(=O)[C@H](CCCN)NCc2cccnc2Sc2c(Cl)ccc(Cl)c2CNC(=O)[C@@H]1Cc1c[nH]c2ccccc12` [RO7075573], the MIC in experiment [1] (E. coli 7623, WT, CAMHB, 100% inhibition, n = 1) was greater than 64 µg/mL; in experiment [1] (E. coli 7623-, efflux impaired, Δ tolC) it was 32 µg/mL (≈ 43.3 µM); in experiment [1] (E. coli R1535, porin deficient, Δ (OmpC; OmpF)) it was greater than 64 µg/mL; in experiment [2], 0.12 µg/mL.
